Measured values as given in article PMC9103351, “Effects of the Bark Resin Extract of Garcinia nigrolineata on Chronic Stress-Induced Memory Deficit in Mice Model and the In Vitro Monoamine Oxidases and β-Amyloid Aggregation Inhibitory Activities of Its Prenylated Xanthone Constituents” (Molecules, 2022).

What was measured:
UCMS mice [1] = test: Morris Water Maze Test (MWMT) in UCMS mice; format: in vivo, ICR mice
Experimental: Five-week-old male ICR mice (weight: 20-30 g), which were acquired from Nomura Siam International (Pathumwan, Bangkok, Thailand), were maintained at the Animal Unit of the Faculty of Pharmaceutical Sciences, Khon Kaen University. Mice were cared for in accordance with the Guiding Principles for the Care and Use of Animals (NIH Publications No. 80-23, revised in 2011). The facilities sustained a 12 h light/dark cycle, constant temperature (22 ± 2 °C), and humidity (45 ± 2%), with full access to food and drink. The current research was authorized by the Animal Ethics Committee for Use and Care of Khon Kaen University (IACUC-KKU-121/64) Mice in the stress groups received mild stressors for 6 weeks. […] In each trial, the latency to reach the platform (escape latency) and the distance covered were recorded for 5 days. […] After completion of the probe test, the time spent in the target quadrant (Q1) was counted as an index of reference memory.

UCMS mice [2] = test: Lipid peroxidation (TBARs, MDA) in frontal cortex and hippocampus of UCMS mice; format: in vivo, ICR mice; conditions: 100 mg/kg/day
Experimental: Five-week-old male ICR mice (weight: 20–30 g), which were acquired from Nomura Siam International (Pathumwan, Bangkok, Thailand), were maintained at the Animal Unit of the Faculty of Pharmaceutical Sciences, Khon Kaen University. Mice were cared for in accordance with the Guiding Principles for the Care and Use of Animals (NIH Publications No. 80–23, revised in 2011). The facilities sustained a 12 h light/dark cycle, constant temperature (22 ± 2 °C), and humidity (45 ± 2%), with full access to food and drink. The current research was authorized by the Animal Ethics Committee for Use and Care of Khon Kaen University (IACUC-KKU-121/64)
Mice in the stress groups received mild stressors for 6 weeks. […]
The lipid peroxidation was measured in the homogenates of the hippocampus and frontal cortex by using TBARs assay as previously described by Khamphukdee et al.. […] The intensity of the pink-colored complex MDA-TBA condensation indicated the extent of a lipid peroxidation, and their protein contents were quantified by the Bradford assay. The absorbance of the MDA-TBA complex was measured by UV/Visible spectrophotometer (Perkin Elmer Inc., Waltham, MA, USA) at 532 nm. Levels of the MDA were calculated from the MDA standard and presented as nmol MDA/mg protein.

For vitamin E, the “time spent in the target quadrant (MWMT probe, day 6)” value (UCMS mice [1]; 100 mg/kg/day oral) was “significantly increased”, the “escape latency (MWMT training)” value (UCMS mice [1]; three weeks of treatment, days 3, 4 and 5) was “significantly reduced” and the “UCMS-induced lipid peroxidation (MDA level)” value (UCMS mice [2]) was “significant neuroprotection”.
